{"source": "patent US9951028B2", "about": "“Agricultural chemicals” (REDAG CROP PROTECTION LTD, priority 2013, dated 2018)", "test_in_all_cases": "Herbicidal efficacy screen, corrected necrosis", "format_in_all_cases": "in vivo", "key": {"[1]": {"system": "Abutilon theophrasti (China Jute)", "method": "(§1) Plants were obtained as seeds and were grown to the 2-4 true leaf stage. Plants were grown under laboratory conditions, individually in seed trays. Each plant (in an approximately 3 cm diameter plug) was then detached from the tray for spraying. The compounds were screened at a range of five concentrations, diluted in acetone and Tween™. A carrier only control was also conducted. Treatments were applied directly onto the plants, using a potter tower, at a specified application rate. One plant of each species was sprayed using a potter tower. The 3 different types of plants were placed on a 10 cm diameter platform directly beneath the potter sprayer and sprayed simultaneously. The growth of the plants and any Phytotoxicity effects were then assessed at intervals over 21 days, according to EPPO guideline PP1/135. In the tables below C represents a percentage increase in necrosis relative to the control of 0.1-50; B represents a percentage inhibition of 50-80; and A represents a percentage inhibition of 80-100. Certain compounds of the invention were screened for herbicidal efficacy against target plants: Amaranthus retroflexus (redroot pigweed), Abutilon theophrasti (China Jute): Capsella bursa-pastoris, (shepherd's-purse) Echinochloa crus-galli, Hordeum vulgare (Barley),"}, "[2]": {"system": "Capsella bursa-pastoris, (shepherd's-purse)", "method": "as §1"}, "[3]": {"system": "Amaranthus retroflexus (redroot pigweed)", "method": "as §1"}, "[4]": {"settings": "6.25 g/ha, day 1 post application"}, "[5]": {"settings": "6.25 g/ha, day 7 post application"}, "[6]": {"settings": "12.5 g/ha, day 1 post application"}, "[7]": {"settings": "12.5 g/ha, day 7 post application"}, "[8]": {"settings": "25 g/ha, day 1 post application"}, "[9]": {"settings": "25 g/ha, day 7 post application"}, "[10]": {"settings": "50 g/ha, day 1 post application"}, "[11]": {"settings": "50 g/ha, day 7 post application"}, "[12]": {"settings": "100 g/ha, day 1 post application"}, "[13]": {"settings": "100 g/ha, day 7 post application"}}}
{"smiles": "CC(C)N(C)S(=O)(=O)NC(=O)c1cc(-n2c(=O)cc(C(F)(F)F)n(C)c2=O)c(F)cc1Cl", "note": "[Compound 25, 2-Chloro-4-fluoro-N-(isopropyl(methyl)sulfamoyl)-5-[3-methyl-2,6-dioxo-4-(trifluoromethyl)pyrimidin-1-yl]benzamide, reference compound]", "values": [{"measurement": "Average of corrected necrosis", "setting": "[1]; [4]", "result": "C (C represents a percentage increase in necrosis relative to the control of 0.1-50)"}, {"measurement": "Average of corrected necrosis", "setting": "[1]; [5]", "result": "A (A represents a percentage inhibition of 80-100)"}, {"measurement": "Average of corrected necrosis", "setting": "[1]; [6]", "result": "C (C represents a percentage increase in necrosis relative to the control of 0.1-50)"}, {"measurement": "Average of corrected necrosis", "setting": "[1]; [7]", "result": "A (A represents a percentage inhibition of 80-100)"}, {"measurement": "Average of corrected necrosis", "setting": "[1]; [8]", "result": "C (C represents a percentage increase in necrosis relative to the control of 0.1-50)"}, {"measurement": "Average of corrected necrosis", "setting": "[1]; [9]", "result": "A (A represents a percentage inhibition of 80-100)"}, {"measurement": "Average of corrected necrosis", "setting": "[1]; [10]", "result": "C (C represents a percentage increase in necrosis relative to the control of 0.1-50)"}, {"measurement": "Average of corrected necrosis", "setting": "[1]; [11]", "result": "A (A represents a percentage inhibition of 80-100)"}, {"measurement": "Average of corrected necrosis", "setting": "[1]; [12]", "result": "C (C represents a percentage increase in necrosis relative to the control of 0.1-50)"}, {"measurement": "Average of corrected necrosis", "setting": "[1]; [13]", "result": "A (A represents a percentage inhibition of 80-100)"}, {"measurement": "Average of corrected necrosis", "setting": "[2]; [4]", "result": 0, "unit": "%"}, {"measurement": "Average of corrected necrosis", "setting": "[2]; [5]", "result": "A (A represents a percentage inhibition of 80-100)"}, {"measurement": "Average of corrected necrosis", "setting": "[2]; [6]", "result": 0, "unit": "%"}, {"measurement": "Average of corrected necrosis", "setting": "[2]; [7]", "result": "A (A represents a percentage inhibition of 80-100)"}, {"measurement": "Average of corrected necrosis", "setting": "[2]; [8]", "result": 0, "unit": "%"}, {"measurement": "Average of corrected necrosis", "setting": "[2]; [9]", "result": "A (A represents a percentage inhibition of 80-100)"}, {"measurement": "Average of corrected necrosis", "setting": "[2]; [10]", "result": "C (C represents a percentage increase in necrosis relative to the control of 0.1-50)"}, {"measurement": "Average of corrected necrosis", "setting": "[2]; [11]", "result": "A (A represents a percentage inhibition of 80-100)"}, {"measurement": "Average of corrected necrosis", "setting": "[2]; [12]", "result": "C (C represents a percentage increase in necrosis relative to the control of 0.1-50)"}, {"measurement": "Average of corrected necrosis", "setting": "[2]; [13]", "result": "A (A represents a percentage inhibition of 80-100)"}, {"measurement": "Average of corrected necrosis", "setting": "[3]; [4]", "result": "C (C represents a percentage increase in necrosis relative to the control of 0.1-50)"}, {"measurement": "Average of corrected necrosis", "setting": "[3]; [5]", "result": "A (A represents a percentage inhibition of 80-100)"}, {"measurement": "Average of corrected necrosis", "setting": "[3]; [6]", "result": "C (C represents a percentage increase in necrosis relative to the control of 0.1-50)"}, {"measurement": "Average of corrected necrosis", "setting": "[3]; [7]", "result": "A (A represents a percentage inhibition of 80-100)"}, {"measurement": "Average of corrected necrosis", "setting": "[3]; [8]", "result": "C (C represents a percentage increase in necrosis relative to the control of 0.1-50)"}, {"measurement": "Average of corrected necrosis", "setting": "[3]; [9]", "result": "A (A represents a percentage inhibition of 80-100)"}, {"measurement": "Average of corrected necrosis", "setting": "[3]; [10]", "result": "C (C represents a percentage increase in necrosis relative to the control of 0.1-50)"}, {"measurement": "Average of corrected necrosis", "setting": "[3]; [11]", "result": "A (A represents a percentage inhibition of 80-100)"}, {"measurement": "Average of corrected necrosis", "setting": "[3]; [12]", "result": "C (C represents a percentage increase in necrosis relative to the control of 0.1-50)"}, {"measurement": "Average of corrected necrosis", "setting": "[3]; [13]", "result": "A (A represents a percentage inhibition of 80-100)"}]}
